Results on 23 molecules are retold here after patent US10722501B2 (BAYER AKTIENGESELLSCHAFT, priority 2016, dated 2020).

The assay addresses T1, recombinant full-length human prolyl endopeptidase (PREP) (Homo sapiens, UniProt P48147).
T1 construct: To recombinant full-length human prolyl endopeptidase (PREP, R&D-Systems, 4308-SE); purchased R&D-Systems 4308-SE
T1 sequence (P48147 1-710): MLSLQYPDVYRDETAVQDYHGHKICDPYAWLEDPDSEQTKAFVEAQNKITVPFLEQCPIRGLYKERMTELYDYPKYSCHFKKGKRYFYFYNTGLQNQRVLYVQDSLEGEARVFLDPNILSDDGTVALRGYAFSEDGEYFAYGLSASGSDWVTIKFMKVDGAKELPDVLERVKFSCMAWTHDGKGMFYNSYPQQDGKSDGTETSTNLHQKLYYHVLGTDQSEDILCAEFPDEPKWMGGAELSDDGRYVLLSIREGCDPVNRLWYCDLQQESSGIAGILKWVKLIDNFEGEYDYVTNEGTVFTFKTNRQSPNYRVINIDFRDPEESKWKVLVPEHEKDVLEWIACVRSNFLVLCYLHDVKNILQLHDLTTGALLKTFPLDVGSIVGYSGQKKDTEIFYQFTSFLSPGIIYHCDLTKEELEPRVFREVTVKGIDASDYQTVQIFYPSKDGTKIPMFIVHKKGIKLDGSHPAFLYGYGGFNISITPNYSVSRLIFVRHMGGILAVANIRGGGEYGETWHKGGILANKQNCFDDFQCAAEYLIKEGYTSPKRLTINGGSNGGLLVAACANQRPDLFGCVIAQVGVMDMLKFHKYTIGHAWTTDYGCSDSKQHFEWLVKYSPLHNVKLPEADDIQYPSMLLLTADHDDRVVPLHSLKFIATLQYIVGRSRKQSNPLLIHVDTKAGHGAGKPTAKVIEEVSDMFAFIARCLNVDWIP
Nature of the assay: Biochemical human prolyl endopeptidase (PREP) assay with fluorescently labelled substrate. The note with it: substrate Z-Gly-Pro-AMC 50 μM, 32° C., 60 min; some as mean values from multiple independent determinations. A digest of the protocol: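 0.4 nM (final, example) recombinant PREP in pH 7.5 Tris buffer with EDTA, GSH, BSA and Brij-35; compounds at 1 nM to 30 μM. Reaction started with 50 μM Z-Gly-Pro-AMC and followed by fluorescence (ex 360/em 465 nm) at 32° C for 60 min. IC50 interpolated from percent activity based on initial slopes.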
For `O=C([C@@H]1CCCc2nn(Cc3cccc(C(F)(F)F)n3)c(=O)n21)N1CC[C@H](F)C1` [Example 370, (5S)-5-{[(3S)-3-Fluoropyrrolidin-1-yl]carbonyl}-2-{[6-(trifluoromethyl)pyridin-2-yl]methyl}-5,6,7,8-tetrahydro[1,2,4]triazolo[4,3-a]pyridin-3(2H)-one], the IC50 was found to be 1 nM.
With `O=C([C@@H]1CCCc2nn(Cc3cccc(C(F)(F)F)n3)c(=O)n21)N1C[C@@H](F)[C@@H](F)C1` [Example 371, (5S)-5-{[(3R,4S)-3,4-Difluoropyrrolidin-1-yl]carbonyl}-2-{[6-(trifluoromethyl)pyridin-2-yl]methyl}-5,6,7,8-tetrahydro[1,2,4]triazolo[4,3-a]pyridin-3(2H)-one] the figure was 1.2 nM.
For `O=C([C@@H]1CCCc2nn(Cc3cc(C(F)(F)F)c(Cl)cn3)c(=O)n21)N1C[C@@H](F)[C@@H](F)C1` [Example 372, (5S)-2-{[5-Chloro-4-(trifluoromethyl)pyridin-2-yl]methyl}-5-{[(3R,4S)-3,4-difluoropyrrolidin-1-yl]carbonyl}-5,6,7,8-tetrahydro[1,2,4]triazolo[4,3-a]pyridin-3(2H)-one] the value was 1.3 nM; for `O=C([C@@H]1CCCc2nn(Cc3cc(C(F)(F)F)c(Cl)cn3)c(=O)n21)N1CC(O)C1` [Example 373, (5S)-2-{[5-Chloro-4-(trifluoromethyl)pyridin-2-yl]methyl}-5-[(3-hydroxyazetidin-1-yl)carbonyl]-5,6,7,8-tetrahydro[1,2,4]triazolo[4,3-a]pyridin-3(2H)-one], 135 nM; for `O=C([C@@H]1CCCc2nn(Cc3cc(C(F)(F)F)c(Cl)cn3)c(=O)n21)N1CC[C@H](O)C1` [Example 374, (5S)-2-{[5-Chloro-4-(trifluoromethyl)pyridin-2-yl]methyl}-5-{[(3S)-3-hydroxypyrrolidin-1-yl]carbonyl}-5,6,7,8-tetrahydro[1,2,4]triazolo[4,3-a]pyridin-3(2H)-one], 51.5 nM.
With `O=C([C@@H]1CCCc2nn(Cc3cc(C(F)(F)F)c(Cl)cn3)c(=O)n21)N1CC(F)C1` [Example 375, (5S)-2-{[5-Chloro-4-(trifluoromethyl)pyridin-2-yl]methyl}-5-[(3-fluoroazetidin-1-yl)carbonyl]-5,6,7,8-tetrahydro[1,2,4]triazolo[4,3-a]pyridin-3(2H)-one], the IC50 is 2.6 nM.
With `O=C([C@@H]1CCCc2nn(Cc3cc(C(F)(F)F)c(Cl)cn3)c(=O)n21)N1CC[C@H](F)C1` [Example 376, (5S)-2-{[5-Chloro-4-(trifluoromethyl)pyridin-2-yl]methyl}-5-{[(3S)-3-fluoropyrrolidin-1-yl]carbonyl}-5,6,7,8-tetrahydro[1,2,4]triazolo[4,3-a]pyridin-3(2H)-one] the figure was 0.41 nM; with `O=C([C@@H]1CCCc2nn(Cc3ccc(Cl)cn3)c(=O)n21)N1CCC(F)(F)C1` [Example 377, (5S)-2-[(5-Chloropyridin-2-yl)methyl]-5-[(3,3-difluoropyrrolidin-1-yl)carbonyl]-5,6,7,8-tetrahydro[1,2,4]triazolo[4,3-a]pyridin-3(2H)-one], 6.86 nM.
For `O=C([C@@H]1CCCc2nn(Cc3ccc(Cl)cn3)c(=O)n21)N1C[C@@H](F)[C@@H](F)C1` [Example 378, (5S)-2-[(5-Chloropyridin-2-yl)methyl]-5-{[(3R,4S)-3,4-difluoropyrrolidin-1-yl]carbonyl}-5,6,7,8-tetrahydro[1,2,4]triazolo[4,3-a]pyridin-3(2H)-one] the value was 2.6 nM; for `O=C([C@@H]1CCCc2nn(Cc3ccc(Cl)cn3)c(=O)n21)N1CC(F)C1` [Example 379, (5S)-2-[(5-Chloropyridin-2-yl)methyl]-5-[(3-fluoroazetidin-1-yl)carbonyl]-5,6,7,8-tetrahydro[1,2,4]triazolo[4,3-a]pyridin-3(2H)-one], 2.5 nM.
With `COc1ccc(Cn2nc3n(c2=O)[C@H](C(=O)N2C[C@@H](F)[C@@H](F)C2)CCC3)nc1` [Example 380, (5S)-5-{[(3R,4S)-3,4-Difluoropyrrolidin-1-yl]carbonyl}-2-[(5-methoxypyridin-2-yl)methyl]-5,6,7,8-tetrahydro[1,2,4]triazolo[4,3-a]pyridin-3(2H)-one] the figure was 2.1 nM; with `COc1ccc(Cn2nc3n(c2=O)[C@H](C(=O)N2CCC(F)(F)C2)CCC3)nc1` [Example 381, (5S)-5-[(3,3-Difluoropyrrolidin-1-yl)carbonyl]-2-[(5-methoxypyridin-2-yl)methyl]-5,6,7,8-tetrahydro[1,2,4]triazolo[4,3-a]pyridin-3(2H)-one], 5.5 nM; with `COc1ccc(Cn2nc3n(c2=O)[C@H](C(=O)N2CC(F)C2)CCC3)nc1` [Example 382, (5S)-5-[(3-Fluoroazetidin-1-yl)carbonyl]-2-[(5-methoxypyridin-2-yl)methyl]-5,6,7,8-tetrahydro[1,2,4]triazolo[4,3-a]pyridin-3(2H)-one], 5.9 nM.
Take `O=C([C@@H]1CCCc2nn(Cc3cccc(Cl)n3)c(=O)n21)N1CCC(F)(F)C1` [Example 383, (5S)-2-[(6-Chloropyridin-2-yl)methyl]-5-[(3,3-difluoropyrrolidin-1-yl)carbonyl]-5,6,7,8-tetrahydro[1,2,4]triazolo[4,3-a]pyridin-3(2H)-one]: the IC50 amounted to 8.55 nM.
For `O=C([C@@H]1CCCc2nn(Cc3cccc(Cl)n3)c(=O)n21)N1CC(F)C1` [Example 384, (5S)-2-[(6-Chloropyridin-2-yl)methyl]-5-[(3-fluoroazetidin-1-yl)carbonyl]-5,6,7,8-tetrahydro[1,2,4]triazolo[4,3-a]pyridin-3(2H)-one] the value was 11 nM; for `O=C([C@@H]1CCCc2nn(Cc3cccc(Cl)n3)c(=O)n21)N1C[C@@H](F)[C@@H](F)C1` [Example 385, (5S)-2-[(6-Chloropyridin-2-yl)methyl]-5-{[(3R,4S)-3,4-difluoropyrrolidin-1-yl]carbonyl}-5,6,7,8-tetrahydro[1,2,4]triazolo[4,3-a]pyridin-3(2H)-one], 1.8 nM.
With `O=C([C@@H]1CCCc2nn(Cc3cccc(Cl)n3)c(=O)n21)N1CC[C@H](F)C1` [Example 386, (5S)-2-[(6-Chloropyridin-2-yl)methyl]-5-{[(3S)-3-fluoropyrrolidin-1-yl]carbonyl}-5,6,7,8-tetrahydro[1,2,4]triazolo[4,3-a]pyridin-3(2H)-one] the figure was 0.94 nM.
With `O=C([C@@H]1CCCc2nn(Cc3nccc(C(F)(F)F)c3Cl)c(=O)n21)N1CCC(F)(F)C1` [Example 387, (5S)-2-{[3-Chloro-4-(trifluoromethyl)pyridin-2-yl]methyl}-5-[(3,3-difluoropyrrolidin-1-yl)carbonyl]-5,6,7,8-tetrahydro[1,2,4]triazolo[4,3-a]pyridin-3(2H)-one] the figure was 3.4 nM; with `O=C([C@@H]1CCCc2nn(Cc3nccc(C(F)(F)F)c3Cl)c(=O)n21)N1C[C@@H](F)[C@@H](F)C1` [Example 388, (5S)-2-{[3-Chloro-4-(trifluoromethyl)pyridin-2-yl]methyl}-5-{[(3R,4S)-3,4-difluoropyrrolidin-1-yl]carbonyl}-5,6,7,8-tetrahydro[1,2,4]triazolo[4,3-a]pyridin-3(2H)-one], 0.575 nM; with `O=C([C@@H]1CCCc2nn(Cc3nccc(C(F)(F)F)c3Cl)c(=O)n21)N1CC(F)C1` [Example 389, (5S)-2-{[3-Chloro-4-(trifluoromethyl)pyridin-2-yl]methyl}-5-[(3-fluoroazetidin-1-yl)carbonyl]-5,6,7,8-tetrahydro[1,2,4]triazolo[4,3-a]pyridin-3(2H)-one], 1.45 nM.
In the case of `O=C([C@@H]1CCCc2nn(Cc3nccc(C(F)(F)F)c3Cl)c(=O)n21)N1CC(O)C1` [Example 390, (5S)-2-{[3-Chloro-4-(trifluoromethyl)pyridin-2-yl]methyl}-5-[(3-hydroxyazetidin-1-yl)carbonyl]-5,6,7,8-tetrahydro[1,2,4]triazolo[4,3-a]pyridin-3(2H)-one], the IC50 turned out to be 13.5 nM.
With `O=C([C@@H]1CCCc2nn(Cc3nccc(C(F)(F)F)c3Cl)c(=O)n21)N1CC[C@H](O)C1` [Example 391, (5S)-2-{[3-Chloro-4-(trifluoromethyl)pyridin-2-yl]methyl}-5-{[(3S)-3-hydroxypyrrolidin-1-yl]carbonyl}-5,6,7,8-tetrahydro[1,2,4]triazolo[4,3-a]pyridin-3(2H)-one] the figure was 8.65 nM; with `O=C([C@@H]1CCCc2nn(Cc3nccc(C(F)(F)F)c3Cl)c(=O)n21)N1CC[C@H](F)C1` [Example 392, (5S)-2-{[3-Chloro-4-(trifluoromethyl)pyridin-2-yl]methyl}-5-{[(3S)-3-fluoropyrrolidin-1-yl]carbonyl}-5,6,7,8-tetrahydro[1,2,4]triazolo[4,3-a]pyridin-3(2H)-one], 0.46 nM.
